Results: patent US20250352541A1, “THERAPEUTIC FOR CANCER REFRACTORY TO IMMUNE CHECKPOINT INHIBITOR” (Sumitomo Pharma Co., Ltd., priority 2022, published 2025)

How the values were obtained:
CHK1 = CHK1 (Homo sapiens (Human), UniProt O14757); test: CHK1 inhibitory activity test (IMAP TR-FRET)
ES-2 cells = test: Cell growth suppression experiment; type: cell-based
Procedure: ES-2 cells were obtained from the American Type Culture Collection (ATCC). These cells were cultured at 37° C. in the presence of 5% CO2 in a 10% fetal bovine serum, 1% penicillin/streptomycin containing McCoy's 5a medium.
500 cells were seeded for each well in a 384-well plate, and the evaluated compound was added so that the final concentration of DMSO would be 0.1% to culture the cells for 2 days. After completion of the culture, the cell viability rate was calculated using CellTiter-Glo® 3D Reagent (Promega, G968B).
The results of cell growth suppression test on representative compounds of the present disclosure are listed in the following table based on the ranking of I, IT, III, IV, and V (1000 nM<I, 1000 nM>TI>300 nM, 300 nM>III>100 nM, 100 nMV>IV>30 nM, 30 nM>V).

Sequence of CHK1 (O14757 whole entry): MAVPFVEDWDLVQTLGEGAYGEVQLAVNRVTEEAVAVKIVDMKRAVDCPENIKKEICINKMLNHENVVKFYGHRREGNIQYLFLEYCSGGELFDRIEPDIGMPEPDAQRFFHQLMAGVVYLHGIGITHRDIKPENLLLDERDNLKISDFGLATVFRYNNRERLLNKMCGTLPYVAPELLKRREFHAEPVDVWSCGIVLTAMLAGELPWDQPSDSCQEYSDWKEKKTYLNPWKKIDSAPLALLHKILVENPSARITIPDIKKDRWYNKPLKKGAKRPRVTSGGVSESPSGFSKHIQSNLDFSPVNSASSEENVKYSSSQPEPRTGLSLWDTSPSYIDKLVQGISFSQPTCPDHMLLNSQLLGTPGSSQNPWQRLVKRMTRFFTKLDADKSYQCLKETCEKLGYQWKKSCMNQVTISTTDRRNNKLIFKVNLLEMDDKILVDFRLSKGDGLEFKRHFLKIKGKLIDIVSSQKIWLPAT

Structure (SMILES) | IC50 (CHK1) | effect of suppressing CHK1 activity compared with prexasertib (CHK1) | cell growth suppression effect compared with prexasertib (ES-2 cells)
COc1cc(Cl)nc(OCCCN)c1-c1cc(Nc2cnc(C#N)cn2)n[nH]1 [Example 2, 5-({5-[2-(3-aminopropoxy)-6-chloro-4-methoxypyridin-3-yl]-1H-pyrazol-3-yl}amino)pyrazine-2-carbonitrile] | 0.22 nM | more potent effect of suppressing CHK1 activity than prexasertib | –
COc1cncc(OCCCN)c1-c1cc(Nc2cnc(C#N)cn2)n[nH]1 [Example 3, 5-({5-[3-(3-aminopropoxy)-5-methoxypyridin-4-yl]-1H-pyrazol-3-yl}amino)pyrazine-2-carbonitrile] | 0.22 nM | more potent effect of suppressing CHK1 activity than prexasertib | excellent cell growth suppression effect that is equivalent to that of prexasertib
COc1nccc(OCCCN)c1-c1cc(Nc2cnc(C#N)cn2)n[nH]1 [Example 4, 5-({5-[4-(3-aminopropoxy)-2-methoxypyridin-3-yl]-1H-pyrazol-3-yl}amino)pyrazine-2-carbonitrile] | 0.23 nM | more potent effect of suppressing CHK1 activity than prexasertib | excellent cell growth suppression effect that is equivalent to that of prexasertib
COc1nccc(OCC2(C)CNC2)c1-c1cc(Nc2cnc(C#N)cn2)n[nH]1 [Example 6, 5-[(5-{2-methoxy-4-[(3-methylazetidin-3-yl)methoxy]pyridin-3-yl}-1H-pyrazol-3-yl)amino]pyrazine-2-carbonitrile] | 0.27 nM | more potent effect of suppressing CHK1 activity than prexasertib | excellent cell growth suppression effect that is equivalent to that of prexasertib
COc1nccc(OCC2(O)CNC2)c1-c1cc(Nc2cnc(C#N)cn2)n[nH]1 [Example 7, 5-[(5-{4-[(3-hydroxyazetidin-3-yl)methoxy]-2-methoxypyridin-3-yl}-1H-pyrazol-3-yl)amino]pyrazine-2-carbonitrile] | 0.21 nM | more potent effect of suppressing CHK1 activity than prexasertib | –
COc1cncc(OCC[C@@H](C)N)c1-c1cc(Nc2cnc(C#N)cn2)n[nH]1 [Example 9, 5-[(5-{3-[(3R)-3-aminobutoxy]-5-methoxypyridin-4-yl}-1H-pyrazol-3-yl)amino]pyrazine-2-carbonitrile] | 0.24 nM | more potent effect of suppressing CHK1 activity than prexasertib | –
COc1cncc(OCC[C@H](C)N)c1-c1cc(Nc2cnc(C#N)cn2)n[nH]1 [Example 10, 5-[(5-{3-[(3S)-3-aminobutoxy]-5-methoxypyridin-4-yl}-1H-pyrazol-3-yl)amino]pyrazine-2-carbonitrile] | 0.3 nM | more potent effect of suppressing CHK1 activity than prexasertib | –
COc1cncc(OCC2(CN)CC2)c1-c1cc(Nc2cnc(C#N)cn2)n[nH]1 [Example 11, 5-{[5-(3-{[1-(aminomethyl)cyclopropyl]methoxy}-5-methoxypyridin-4-yl)-1H-pyrazol-3-yl]amino}pyrazine-2-carbonitrile] | 0.18 nM | more potent effect of suppressing CHK1 activity than prexasertib | excellent cell growth suppression effect that is equivalent to that of prexasertib
COc1cncc(OC[C@@H](O)CN)c1-c1cc(Nc2cnc(C#N)cn2)n[nH]1 [Example 14, 5-[(5-{3-[(2S)-3-amino-2-hydroxypropoxy]-5-methoxypyridin-4-yl}-1H-pyrazol-3-yl)amino]pyrazine-2-carbonitrile] | 0.22 nM | more potent effect of suppressing CHK1 activity than prexasertib | –
COc1ccnc(OCCCN)c1-c1cc(Nc2cnc(Cl)cn2)n[nH]1 [Example 15, N-{5-[2-(3-aminopropoxy)-4-methoxypyridin-3-yl]-1-H-pyrazol-3-yl}-5-chloropyrazin-2-amine] | 0.26 nM | more potent effect of suppressing CHK1 activity than prexasertib | excellent cell growth suppression effect that is equivalent to that of prexasertib
COc1cncc(OCC2CNC2)c1-c1cc(Nc2cnc(C#N)cn2)n[nH]1 [Example 18, 5-({5-[3-(azetidin-3-yl)methoxy-5-methoxypyridin-4-yl]-1H-pyrazol-3-yl}amino)pyrazine-2-carbonitrile] | 0.51 nM | more potent effect of suppressing CHK1 activity than prexasertib | –
COc1cncc(O[C@@H]2CCC[C@H](N)C2)c1-c1cc(Nc2cnc(C#N)cn2)n[nH]1 [Example 19, 5-{[5-(3-{[(1R,3S)-3-aminocyclohexyl]oxy}-5-methoxypyridin-4-yl)-1H-pyrazol-3-yl]amino}pyrazine-2-carbonitrile] | 0.26 nM | more potent effect of suppressing CHK1 activity than prexasertib | excellent cell growth suppression effect that is equivalent to that of prexasertib
COc1cncc(OC[C@H]2CCNC2)c1-c1cc(Nc2cnc(C#N)cn2)n[nH]1 [Example 21, (S)-5-[(5-{3-methoxy-[5-(pyrrolidin-3-yl)methoxy]pyridin-4-yl}-1H-pyrazol-3-yl)amino]pyrazine-2-carbonitrile] | 0.29 nM | more potent effect of suppressing CHK1 activity than prexasertib | excellent cell growth suppression effect that is equivalent to that of prexasertib
COc1ncnc(OCC2(CN)CC2)c1-c1cc(Nc2cnc(C#N)cn2)n[nH]1 [Example 23, 5-{[5-(4-{[1-(aminomethyl)cyclopropyl]methoxy}-6-methoxypyrimidin-5-yl)-1H-pyrazol-3-yl]amino}pyrazine-2-carbonitrile] | 0.79 nM | – | excellent cell growth suppression effect that is equivalent to that of prexasertib
N#Cc1cnc(Nc2cc(-c3c(OCF)cncc3OCCCN)[nH]n2)cn1 [Example 24, 5-({5-[3-(3-aminopropoxy)-5-(fluoromethoxy)pyridin-4-yl]-1H-pyrazol-3-yl}amino)pyrazine-2-carbonitrile] | 0.3 nM | more potent effect of suppressing CHK1 activity than prexasertib | –
COc1cncc(OCC2(C)CNC2)c1-c1cc(Nc2cnc(C#N)cn2)n[nH]1 [Example 25, 5-[(5-{3-methoxy-5-[(3-methylazetidin-3-yl)methoxy]pyridin-4-yl}-1H-pyrazol-3-yl)amino]pyrazine-2-carbonitrile] | 0.74 nM | – | excellent cell growth suppression effect that is equivalent to that of prexasertib
COc1cncc(OCC2(C(F)F)CNC2)c1-c1cc(Nc2cnc(C#N)cn2)n[nH]1 [Example 26, 5-{[5-(3-{[3-(difluoromethyl)azetidin-3-yl]methoxy}-5-methoxypyridin-4-yl)-1H-pyrazol-3-yl]amino}pyrazine-2-carbonitrile] | 0.14 nM | more potent effect of suppressing CHK1 activity than prexasertib | excellent cell growth suppression effect that is equivalent to that of prexasertib
COc1cncc(OC[C@@H](C)CN)c1-c1cc(Nc2cnc(C#N)cn2)n[nH]1 [Example 27] | 3.46 nM | – | excellent cell growth suppression effect that is equivalent to that of prexasertib
COc1cncc(OC[C@H](C)CN)c1-c1cc(Nc2cnc(C#N)cn2)n[nH]1 [Example 28] | 0.5 nM | more potent effect of suppressing CHK1 activity than prexasertib | excellent cell growth suppression effect that is equivalent to that of prexasertib
CNCCCOc1cncc(OC)c1-c1cc(Nc2cnc(C#N)cn2)n[nH]1 [Example 31, 5-[(5-{3-methoxy-5-[3-(methylamino)propoxy]pyridin-4-yl}-1H-pyrazol-3-yl)amino]pyrazine-2-carbonitrile] | 0.75 nM | – | excellent cell growth suppression effect that is equivalent to that of prexasertib
COc1cncc(O[C@@H]2CC[C@@H](N)C2)c1-c1cc(Nc2cnc(C#N)cn2)n[nH]1 [Example 32, 5-{[5-(3-{[(1R,3R)-3-aminocyclopentyl]oxy}-5-methoxypyridin-4-yl)-1H-pyrazol-3-yl]amino}pyrazine-2-carbonitrile] | – | – | excellent cell growth suppression effect that is equivalent to that of prexasertib
COc1cncc(O[C@H](C)C2CNC2)c1-c1cc(Nc2cnc(C#N)cn2)n[nH]1 [Example 33, 5-[(5-{3-[(1R)-1-(azetidin-3-yl)ethoxy]-5-methoxypyridin-4-yl}-1H-pyrazol-3-yl)amino]pyrazine-2-carbonitrile] | 0.69 nM | – | excellent cell growth suppression effect that is equivalent to that of prexasertib
COc1cncc(O[C@H](C)C2(O)CNC2)c1-c1cc(Nc2cnc(C#N)cn2)n[nH]1 [Example 34, 5-[(5-{3-[(1R)-1-(3-hydroxyazetidin-3-yl)ethoxy]-5-methoxypyridin-4-yl}-1H-pyrazol-3-yl)amino]pyrazine-2-carbonitrile] | 1.82 nM | – | –
